The target in series [1] is T1, α-glucosidase (Saccharomyces cerevisiae, UniProt P53341).
T1 construct: purchased Sigma-Aldrich G5003
The series can be described thus: α-glucosidase inhibition (paranitrophenyl-α-d-glucopyranoside substrate). In kind it is biochemical. Particulars: enzyme 0.15 U/ml, substrate 1.25 mM, absorbance 405 nm. As to the method:
For glucosidase inhibition, α-glucosidase (Code G5003; Sigma-Aldrich, St. Louis, Mo., USA) was dissolved in 67 mM potassium phosphate buffer, pH 6.8, containing 8 containing 0.2% Bovine Serum Albumin (Sigma-Aldrich) & 0.02% sodium azide (Sigma-Aldrich) which was used as enzyme source. Paranitrophenyl-α-d-glucopyranoside (Sigma-Aldrich) was used as substrate. Thymoquinone, thymohydroquinone and composition containing thymohydroquinone were weighed prepared at concentration of 63, 125, 250 and 500 μg/ml and were made up with equal volumes of distilled water. 50 μl of said composition was incubated for 5 min with 50 μl enzyme source (0.15 U/ml). After incubation, 50 μl of substrate (1.25 mM) was added and further incubated for 20 min at room temperature. Presubstrate and post-substrate addition, absorbance was measured at 405 nm on a microplate reader (BMG FLUOstar OPTIMA Microplate Reader). The increase in absorbance on substrate addition was obtained. Each test was performed three times and the mean absorption was used to calculate percentage α-glucosidase inhibition. Acarbose was used as positive control with various concentrations. The inhibitory activities of varying concentrations of said composition were expressed as 100 minus the absorbance difference (%) of the said composition relative to the absorbance change of the negative control (i.e., water used as the test solution). […]

Series [2] is described as follows: Anti-glycation, Ribose-BSA method, pentosidine AGE. As to the method:
(§1) AGEs can be fluorescent as well as non fluorescent in nature. Typically the vesperlysine type of AGE have an excitation at 370-nm and emission at 440 nm, while pentosidine like AGE have an excitation at 335 nm and emission at 385 nm. The principle is based on the fact that ribose sugar and bovine serum albumin are mixed in specific ratio and incubated for 24 hours. Vesperlysine like AGE formed by the reaction was e estimated by the increase in fluorescence detected, at Ex/Em at 390/460 nm and pentosidines were detected at Ex/Em at 320/405 nm
(§2) Ribose—BSA method: 10 μl of various concentrations of samples were added to 40 μl of BSA (bovine serum albumin, 25 mg/ml stock) and 50 μl of D-Ribose (150 mg/ml stock) was added per well of black 96-well microplate and incubated for 24 h at 37° C. BSA was taken as the control. The AGEs (advanced glycation end product) formed were detected by the fluorescence at Ex/Em at 390/460 nm for vesperlysine and Ex/Em at 320/405 nm for pentosidine AGE.

For series [3], the system named is Muscle cells (C2C12 myotubes). Nature of the series: Glucose uptake (2-NBDG, flow cytometry) in differentiated C2C12 myotubes. The series is classed as cell-based. The conditions noted are these: compared to thymoquinone; FIG. 2. As to the method:
The skeletal muscle cell line C2C12 myoblasts (procured from ATCC) were maintained in DMEM supplemented with 10% Fetal Bovine Serum at 37° C. with 5% CO2. Twenty thousand cells per well were seeded in a 24 well plate. When the cells reached 80-90% confluence, differentiation was induced by replacing the growth medium with DMEM containing 1% horse serum. Experiments were performed in completely differentiated C2C12 myotubes after 4-5 days in differentiation medium. Cells were then treated with 0.5% BSA in low glucose media for 16 hours and washed with cold Krebs-Ringer phosphate buffer without glucose. Cells were then treated with different non cytotoxic concentrations of samples in low glucose DMEM media with or without insulin at a concentration of 0.1 μM for 30 minutes at 37° C. Cells were then washed with cold PBS and stained with 5 μM of a fluorescent D-glucose analog 2-[N-(7-nitrobenz-2-oxa-1,3-diazol-4-yl) amino]-2-deoxy-D-glucose (2-NBDG) for 15 minutes in dark followed by flow cytometric detection of fluorescence produced by the cells.
In general terms: Flow cytometry measures light scatter and fluorescence of single cells or particles in a stream.

The nature of series [4]: DPPH radical scavenging assay. Particulars: concentration reducing DPPH absorbance by 50%. On the procedure:
DPPH is a stable free radical in a methanolic solution with an absorbance at 520 nm. If the free radicals are scavenged by an anti oxidant molecule, the resulting solution appears yellow. The hydrogen atoms or electrons donation ability of the extracellular metabolite was measured by the bleaching of purple coloured DPPH methanol solution.
Thymoquinone, Thymohydroquinone and the composition comprising thymohydroquinone were prepared in varying concentrations. For the DPPH radical scavenging assay, 20 μL of test material was mixed with 180 μL of DPPH in methanol in a 96 well plate following the method as described earlier (Clarke et al., 2013). The plate was kept in the dark for 15 min, after which the absorbance of the solution was measured at 540 nm using a microplate reader (TECAN Ltd, Männedorf, Switzerland). Blanks (DMSO, methanol) and standard (Trolox solution in DMSO) were recorded simultaneously. The extracts were screened with variable concentrations to establish the inhibition concentration (IC50, the concentration reducing DPPH absorbance by 50%).
The free radical scavenging activity was calculated as follows,
Where, • B=Absorbance of reference solution (OD of DPPH) • C=Absorbance of reference solution, blank (OD of Methanol only) • S=Absorbance of test solution • […]
Background: DPPH is a stable violet radical that fades when it is reduced.

Series [5] deals with Adipocytes. The series can be described thus: Glucose uptake in adipocytes. In kind it is cell-based. The conditions noted are these: compared to thymoquinone; FIG. 2.
For series [6], the system named is TNF-α. Nature of the series: TNF-α secretion by LPS-stimulated THP-1 cells (ELISA). The conditions noted are these: for inhibition at 0.03 µg/mL / inhibition at 0.06 µg/mL / inhibition at 0.13 µg/mL: Homo sapiens, THP-1, LPS 0.1 μg/mL, 24 hour; for inhibition at 0.03 µg/mL: 0.03 μg/mL; for inhibition at 0.06 µg/mL: 0.06 μg/mL; for inhibition at 0.13 µg/mL: 0.13 μg/mL. In kind it is cell-based, human. As to the method: Cells: THP1-human monocytes purchased from American Type Culture Collection (ATCC, Manassas, Va.) and maintained as a monolayer culture in Rosewell park memorial institute Medium (RMPI Life technologies, CA, USA.) supplemented with 10% (v/v) heat-inactivated foetal bovine serum (FBS; GIBCO/Invitrogen, Carlsbad, Calif.), 100 units/mL penicillin and 100 μg/mL streptomycin (Life technologies) at 37° C. in a humidified 5% CO2 incubator.
Reagents and buffers: Lipopolysaccharide (LPS, Sigma chemicals, USA), Phosphate buffered saline, RPMI, FBS
ELISA kit: Human TNF ELISA kit, Krishgen Biosciences, USA
Anti inflammatory activity was examined using human monocyte/macrophage cell line THP-Monocytes respond to lipopolysaccharides (LPS) by secreting proinflammatory cytokines. Tumour necrosis factor (TNF-α) is one of the principle cytokine which triggers a cascade of inflammatory reactions. The concentration of TNF-α was measured using an Enzyme linked Immunosorbent assay (ELISA). Reduction in TNF-α concentration indicates an anti inflammatory activity of the compound.
1×10^5 THP-1 cells were stimulated with 100 ng with lipopolysacharide (LPS, 0.1 μg/mL) to induce TNF-α secretion. Cells were pre treated with different concentrations of test materials (Thymoquinone, thymohydroquinone and a composition comprising thymohydroquinone) before LPS treatment. The cell supernatants were collected 24 hour after treatment and secreted TNF-α as estimated by cytokine ELISA as described by the manufacturer. Unstimulated cells were used as negative control. The limit of detection was <1 pg/mL.

Series [7] in a line: Anti-glycation, Ribose-BSA method, vesperlysine-like AGE. On the procedure: as §1, §2

T1 sequence (P53341 whole entry): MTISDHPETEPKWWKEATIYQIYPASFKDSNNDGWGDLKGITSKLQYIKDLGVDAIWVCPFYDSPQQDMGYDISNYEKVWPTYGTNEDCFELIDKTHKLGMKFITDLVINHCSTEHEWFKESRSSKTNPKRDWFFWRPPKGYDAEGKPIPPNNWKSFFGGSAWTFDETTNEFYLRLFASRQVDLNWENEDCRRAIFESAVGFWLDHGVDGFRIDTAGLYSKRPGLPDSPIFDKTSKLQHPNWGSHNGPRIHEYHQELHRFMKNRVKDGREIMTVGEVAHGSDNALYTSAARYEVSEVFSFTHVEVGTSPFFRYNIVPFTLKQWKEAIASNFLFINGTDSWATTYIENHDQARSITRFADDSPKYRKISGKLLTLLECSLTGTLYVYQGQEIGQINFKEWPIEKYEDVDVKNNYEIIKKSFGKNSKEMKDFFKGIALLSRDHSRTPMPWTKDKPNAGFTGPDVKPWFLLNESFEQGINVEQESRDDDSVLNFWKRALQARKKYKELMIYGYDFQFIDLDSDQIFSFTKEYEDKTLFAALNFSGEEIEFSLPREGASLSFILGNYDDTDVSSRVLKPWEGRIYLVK

Turning to `Cc1cc(O)c(C(C)C)cc1O` [Thymohydroquinone, thymohydroquinone], it took 0.433 mM to reach half-maximal inhibition in series [1] (IC50). Further, the “IC50, Inhibition of pentosidine Ex/Em at 320/405 nM” value in series [2] stood at 65.89 µg/mL. Moreover, the “% Inhibition of pentosidine Ex/Em at 320/405 nm” value in series [2] (15.63 μg/mL) was determined as 5.39%; in series [2] (31.25 μg/mL), 28.73%; in series [2] (62.5 μg/mL), 49.55%; in series [2] (125 μg/mL) it was 68.33%; in series [2] (250 μg/mL), 89.31%. Moreover, the “glucose uptake in Muscle cells” value in series [3] was “enhanced glucose uptake”. Further, the “IC50 of DPPH scavenging” value in series [4] was determined as 1.78 µg/mL. The “glucose uptake in Adipocytes” value in series [5] is given as “enhanced glucose uptake”. In series [6], this compound displayed an inhibition at 0.03 µg/mL of 2.5%. This compound also returned an inhibition at 0.06 µg/mL in series [6] of 4.5%. The compound further returned an inhibition at 0.13 µg/mL in series [6] of 11.9%. Further, the cell viability entry in series [6] (THP-1 cells in the TNF-α test) was “without affecting the cell viability”. For the same compound, the “IC50, inhibition of vesperlysine Ex/Em at 390/460 nM” value in series [7] is 108.30 µg/mL. For the same compound, the “% inhibition of vesperlysine Ex/Em at 390/460 nm” value in series [7] (15.63 μg/mL) is 23.03%; in series [7] (31.25 μg/mL) it was 34.06%; in series [7] (62.5 μg/mL), 43.83%; in series [7] (125 μg/mL), 52.28%; in series [7] (250 μg/mL) it was 60.42%.
Compound `CC1=CC(=O)C(C(C)C)=CC1=O` [Thymoquinone, thymoquinone, reference compound] had a concentration for half-maximal inhibition (IC50) in series [1] of 2.48 mM. Moreover, in series [2], the “IC50, Inhibition of pentosidine Ex/Em at 320/405 nM” value turned out to be 142.70 µg/mL. Besides, the “% Inhibition of pentosidine Ex/Em at 320/405 nm” value turned out to be 0% in series [2] (15.63 μg/mL); 23.59% in series [2] (31.25 μg/mL); 0.06% in series [2] (62.5 μg/mL); 44.57% in series [2] (125 μg/mL); 61.80% in series [2] (250 μg/mL). The same compound came in with an inhibition at 0.03 µg/mL in series [6] of 22%. In series [6], testing at 0.06 µg/mL gave an inhibition of 31%. The compound also displayed an inhibition at 0.13 µg/mL in series [6] of 35%. Moreover, in series [7], the “IC50, inhibition of vesperlysine Ex/Em at 390/460 nM” value was 157.80 µg/mL. The “% inhibition of vesperlysine Ex/Em at 390/460 nm” value in series [7] (15.63 μg/mL) is on record as 0%; in series [7] (31.25 μg/mL), 38.55%; in series [7] (62.5 μg/mL) it was 40.81%; in series [7] (125 μg/mL) it was 44.54%; in series [7] (250 μg/mL) it was 56.69%.

The IC50 is the point on the concentration scale where inhibition reaches its midpoint. A high value points to a need for much substance. As a reminder, the inhibition is the relative decrease from the control value, in per cent. A lower inhibition goes with a weak effect.

These data come from patent US10881623B2, “Compositions for the management of hyperglycemia and related conditions” (SAMI LABS LIMITED, priority 2017, dated 2021).
